Molecular target: E3 ubiquitin-protein ligase XIAP (Homo sapiens, UniProt P98170)
Test: XIAP antagonists, biochemical, IAP family, fluorescence polarization (AID 1018)

Sequence of E3 ubiquitin-protein ligase XIAP (P98170 whole entry): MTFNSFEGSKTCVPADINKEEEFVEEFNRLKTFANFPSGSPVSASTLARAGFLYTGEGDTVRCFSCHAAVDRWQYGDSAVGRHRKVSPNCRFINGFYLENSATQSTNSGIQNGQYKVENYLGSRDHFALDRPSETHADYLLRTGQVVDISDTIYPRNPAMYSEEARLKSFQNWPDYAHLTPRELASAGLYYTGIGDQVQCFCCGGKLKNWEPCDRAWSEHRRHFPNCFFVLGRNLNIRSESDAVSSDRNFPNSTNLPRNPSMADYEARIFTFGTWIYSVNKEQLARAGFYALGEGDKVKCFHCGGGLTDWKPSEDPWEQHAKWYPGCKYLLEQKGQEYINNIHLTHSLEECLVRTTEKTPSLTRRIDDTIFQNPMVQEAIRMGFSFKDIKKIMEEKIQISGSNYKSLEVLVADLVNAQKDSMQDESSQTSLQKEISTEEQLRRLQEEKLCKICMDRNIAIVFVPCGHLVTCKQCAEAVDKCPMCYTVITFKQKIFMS

Row | IC50 | Structure (SMILES)
1 | > 100 µM | COc1ccc(C(=O)C2C(=O)C(=O)N(CC3CCCO3)C2c2cccc(OC)c2)cc1 (stereo not given) [(4Z)-4-[hydroxy-(4-methoxyphenyl)methylene]-5-(3-methoxyphenyl)-1-(tetrahydrofurfuryl)pyrrolidine-2,3-quinone]
2 | > 100 µM | COc1cc(CN=Nc2nc(Nc3ccc(C)cc3)nc(-n3nc(C)cc3C)n2)cc(OC)c1OC
3 | > 100 µM | Cc1cc(=O)[nH]c(N=NC(CC(C)C)CC(C)C)n1
4 | > 100 µM | COc1cccc(C(=O)CC=Nc2cc(C)ccc2O)c1 [MLS000088060]
5 | > 100 µM | CCOc1ccccc1NC(=O)C1C(C)=NC(=S)NC1c1cccs1 (stereo not given) [N-(2-ethoxyphenyl)-6-methyl-2-sulfanylidene-4-thiophen-2-yl-3,4-dihydro-1H-pyrimidine-5-carboxamide]
6 | > 100 µM | COc1cc(CN=Nc2cc(C)nc(NS(=O)(=O)c3ccc(C)cc3)n2)ccc1O
7 | > 100 µM | O=C(CC=Nc1ccc(Nc2ccccc2)cc1)c1cccs1 [(E)-3-(4-anilinoanilino)-1-thiophen-2-yl-2-propen-1-one]
8 | > 100 µM | Cc1cccc(N(CC(N)=O)c2sc(=O)n(-c3ccccc3)c2O)c1 [SMR000009552]
9 | > 100 µM | COc1ccc(CN=Nc2nc(N3CCCC3)nc(N3CCCC3)n2)cc1 [MLS000704198]
10 | > 100 µM | O=C(O)c1cccc(-n2c(O)c3c(c2O)CC(Cl)=CC3)c1 [3-[5-chloranyl-1,3-bis(oxidanylidene)-3a,4,7,7a-tetrahydroisoindol-2-yl]benzoic acid]

Reference: BindingDB's records for doi:10.7270/Q2HD7T4S (Sanford-Burnham Center For Chemical Genomics, 2008)
